Data reported in patent US20050241940A1, “Fast perfusion system and patch clamp technique utilizing an interface chamber system having high throughput and low volume requirements” (Wyeth, priority 2004, published 2005).

System: outward potassium currents in DRG neurons
Test: Whole cell patch clamp recording of outward potassium currents in DRG neurons using the interface chamber
Type: cell-based
Method: The current across a patch clamp measuring electrode and cell versus time is shown. Whole cell recording measurements were obtained via conventional methods. The interface chamber was moved to surround the cell as in steps 101-103 above. A measurement of current was recorded while the cell was in a well containing a normal saline (control) solution. The cell was then moved from normal saline to a well containing increasing concentrations (from 0 to 10 mM in increasing increments) of the K^+ channel blocker 4-AP. For each of the measurements, cells were held at −50 mV, stepped with a prepulse to −100 mV for 400 ms and then stepped for the test to +40 mV. After the test pulse, cells were repolarized to −60 mV. Sweeps were obtained every 10 sec, and 5 sweeps were obtained per well. The interface was moved from one well to the next in a short time, such as 2 seconds.
Outward currents due to K^+ flow from the cell is shown. […] The lower current is consistent with the expected blocking effected of the 4-AP. Both the peak current (the spike at the left of graph of each measurement) and the end current (final value of current for each measurement) decreased as the concentration of 4-AP increased.
FIG. 8 illustrates a graph showing the peak current of a fractional block versus the concentration of a test substance according to one example of the invention. […] The dose response curve shown illustrates the ability of this system to measure multiple concentrations of test substance accurately.

[1] = highest concentration tested (10 mM)

Nc1ccncc1 [4-AP]
end current (final value of current for each measurement) (as the concentration of 4-AP increased (0 to 10 mM)): decreased
peak current (as the concentration of 4-AP increased (0 to 10 mM), FIG. 7, shown as fractional block in FIG. 8): the peak current decreased as the concentration of 4-AP increased
inactivating current remaining [1]: no inactivating current remains
non-inactivating (persistent) current remaining [1]: significant non-inactivating (persistent) current persists
current across the cell membrane (outward K+ current) (whole cell, increasing 4-AP concentrations from 0 to 10 mM, test pulse to +40 mV): decreased the current across the cell membrane
